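The compound was tested at five concentrations on cells cultured in 96-well plates, with a 48-hour exposure period. The concentration for 50% growth inhibition is given as GI50. The concentration for full growth arrest is given as TGI.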
How the values were obtained:
Assay in all cases: DTP human tumour cell line panel, 48 h
NCI-H23 lung = test system: NCI-H23 lung
HCT-116 colon = test system: HCT-116 colon
T-47D breast = test system: T-47D breast
HCT-15 colon = test system: HCT-15 colon
M14 melanoma = test system: M14 melanoma
HCC-2998 colon = test system: HCC-2998 colon
HT29 colon = test system: HT29 colon
OVCAR-3 ovarian = test system: OVCAR-3 ovarian
SK-MEL-2 melanoma = test system: SK-MEL-2 melanoma
MDA-MB-231 breast = test system: MDA-MB-231 breast
SF-539 CNS = test system: SF-539 CNS
SR leukemia = test system: SR leukemia
OVCAR-4 ovarian = test system: OVCAR-4 ovarian
HS 578T breast = test system: HS 578T breast
UACC-62 melanoma = test system: UACC-62 melanoma
RXF 393 renal = test system: RXF 393 renal
MDA-MB-435 = test system: MDA-MB-435
SK-MEL-5 melanoma = test system: SK-MEL-5 melanoma
IGROV1 ovarian = test system: IGROV1 ovarian
NCI-H460 lung = test system: NCI-H460 lung
A549 NSCLC = test system: A549 NSCLC
K-562 leukemia = test system: K-562 leukemia
EKVX NSCLC = test system: EKVX NSCLC
BT-549 breast = test system: BT-549 breast
HOP-92 NSCLC = test system: HOP-92 NSCLC
SN12C renal = test system: SN12C renal
RPMI-8226 leukemia = test system: RPMI-8226 leukemia
MOLT-4 leukemia = test system: MOLT-4 leukemia
ACHN renal = test system: ACHN renal
CCRF-CEM leukemia = test system: CCRF-CEM leukemia
LOX IMVI melanoma = test system: LOX IMVI melanoma
UACC-257 melanoma = test system: UACC-257 melanoma
SF-295 CNS = test system: SF-295 CNS
HL-60(TB) leukemia = test system: HL-60(TB) leukemia
SK-OV-3 ovarian = test system: SK-OV-3 ovarian
NCI-H522 lung = test system: NCI-H522 lung
A498 renal = test system: A498 renal
SW-620 colon = test system: SW-620 colon
MCF7 breast = test system: MCF7 breast
UO-31 renal = test system: UO-31 renal
SNB-75 CNS = test system: SNB-75 CNS
CAKI-1 renal = test system: CAKI-1 renal
SK-MEL-28 melanoma = test system: SK-MEL-28 melanoma
PC-3 prostate = test system: PC-3 prostate
SNB-19 CNS = test system: SNB-19 CNS
OVCAR-5 ovarian = test system: OVCAR-5 ovarian
SF-268 CNS = test system: SF-268 CNS
786-0 renal = test system: 786-0 renal
TK-10 renal = test system: TK-10 renal
NCI-H226 lung = test system: NCI-H226 lung
KM12 colon = test system: KM12 colon
HOP-62 NSCLC = test system: HOP-62 NSCLC
OVCAR-8 ovarian = test system: OVCAR-8 ovarian
COLO 205 colon = test system: COLO 205 colon
NCI/ADR-RES ovarian = test system: NCI/ADR-RES ovarian
U251 CNS = test system: U251 CNS
MALME-3M melanoma = test system: MALME-3M melanoma
DU-145 prostate = test system: DU-145 prostate

CC[C@]1(O)C[C@@H]2CN(CCc3c([nH]c4ccccc34)[C@@](C(=O)OC)(c3cc4c(cc3OC)N(C)[C@H]3[C@@](O)(C(=O)OC)[C@H](OC(C)=O)[C@]5(CC)C=CCN6CC[C@]43[C@@H]65)C2)C1
GI50 (NCI-H23 lung): < 0.01 µM
TGI (NCI-H23 lung): > 100 µM
GI50 (HCT-116 colon): < 0.01 µM
TGI (HCT-116 colon): 15 µM
GI50 (T-47D breast): 8.59 µM
TGI (T-47D breast): > 100 µM
GI50 (HCT-15 colon): < 0.0116 µM
TGI (HCT-15 colon): 14.6 µM
GI50 (M14 melanoma): < 0.01 µM
TGI (M14 melanoma): 4.31 µM
GI50 (HCC-2998 colon): < 0.01 µM
TGI (HCC-2998 colon): 7.74 µM
GI50 (HT29 colon): < 0.01 µM
TGI (HT29 colon): 18.9 µM
GI50 (OVCAR-3 ovarian): < 0.01 µM
TGI (OVCAR-3 ovarian): < 0.01 µM
GI50 (SK-MEL-2 melanoma): < 0.0149 µM
TGI (SK-MEL-2 melanoma): 20.2 µM
GI50 (MDA-MB-231 breast): < 0.01 µM
TGI (MDA-MB-231 breast): 11.2 µM
GI50 (SF-539 CNS): < 0.01 µM
TGI (SF-539 CNS): < 0.01 µM
GI50 (SR leukemia): < 0.01 µM
TGI (SR leukemia): 19.6 µM
TGI (OVCAR-4 ovarian): > 100 µM
GI50 (HS 578T breast): < 0.01 µM
TGI (HS 578T breast): 10.8 µM
GI50 (UACC-62 melanoma): < 0.01 µM
TGI (UACC-62 melanoma): 17.4 µM
GI50 (RXF 393 renal): < 0.01 µM
TGI (RXF 393 renal): 3.77 µM
GI50 (MDA-MB-435): < 0.01 µM
TGI (MDA-MB-435): < 0.01 µM
GI50 (SK-MEL-5 melanoma): < 0.01 µM
TGI (SK-MEL-5 melanoma): < 0.0385 µM
GI50 (IGROV1 ovarian): < 0.01 µM
TGI (IGROV1 ovarian): 13 µM
GI50 (NCI-H460 lung): < 0.01 µM
TGI (NCI-H460 lung): 15.1 µM
GI50 (A549 NSCLC): < 0.01 µM
TGI (A549 NSCLC): > 100 µM
GI50 (K-562 leukemia): < 0.01 µM
TGI (K-562 leukemia): 14.6 µM
TGI (EKVX NSCLC): > 79 µM
GI50 (BT-549 breast): < 0.01 µM
TGI (BT-549 breast): 8.4 µM
GI50 (HOP-92 NSCLC): < 0.01 µM
GI50 (SN12C renal): < 0.01 µM
TGI (SN12C renal): 35.7 µM
GI50 (RPMI-8226 leukemia): < 0.01 µM
TGI (RPMI-8226 leukemia): 8.54 µM
GI50 (MOLT-4 leukemia): < 0.01 µM
TGI (MOLT-4 leukemia): 21.3 µM
GI50 (ACHN renal): < 0.0324 µM
TGI (ACHN renal): 73.9 µM
GI50 (CCRF-CEM leukemia): < 0.01 µM
TGI (CCRF-CEM leukemia): > 49.3 µM
GI50 (LOX IMVI melanoma): < 0.01 µM
TGI (LOX IMVI melanoma): 14.8 µM
GI50 (UACC-257 melanoma): 14.6 µM
TGI (UACC-257 melanoma): 37.8 µM
GI50 (SF-295 CNS): < 0.01 µM
TGI (SF-295 CNS): 0.991 µM
GI50 (HL-60(TB) leukemia): < 0.01 µM
TGI (HL-60(TB) leukemia): < 0.01 µM
TGI (SK-OV-3 ovarian): 45 µM
GI50 (NCI-H522 lung): < 0.01 µM
GI50 (A498 renal): < 0.01 µM
TGI (A498 renal): < 0.01 µM
GI50 (SW-620 colon): < 0.01 µM
TGI (SW-620 colon): > 100 µM
GI50 (MCF7 breast): < 0.01 µM
TGI (MCF7 breast): 32.3 µM
GI50 (UO-31 renal): 0.175 µM
TGI (UO-31 renal): 19.1 µM
GI50 (SNB-75 CNS): < 0.01 µM
TGI (SNB-75 CNS): 0.592 µM
GI50 (CAKI-1 renal): < 0.01 µM
TGI (CAKI-1 renal): 4.65 µM
GI50 (SK-MEL-28 melanoma): 11.1 µM
TGI (SK-MEL-28 melanoma): 28 µM
GI50 (PC-3 prostate): < 0.01 µM
TGI (PC-3 prostate): 22.2 µM
GI50 (SNB-19 CNS): < 0.01 µM
TGI (SNB-19 CNS): > 100 µM
GI50 (OVCAR-5 ovarian): < 0.01 µM
TGI (OVCAR-5 ovarian): 87.7 µM
GI50 (SF-268 CNS): < 0.0281 µM
TGI (SF-268 CNS): 19.5 µM
GI50 (786-0 renal): < 0.01 µM
TGI (786-0 renal): 14.5 µM
GI50 (TK-10 renal): 6.02 µM
TGI (TK-10 renal): 26.9 µM
TGI (NCI-H226 lung): 17.7 µM
GI50 (KM12 colon): < 0.01 µM
TGI (KM12 colon): 14.4 µM
GI50 (HOP-62 NSCLC): < 0.01 µM
TGI (HOP-62 NSCLC): 24.1 µM
GI50 (OVCAR-8 ovarian): < 0.01 µM
TGI (OVCAR-8 ovarian): > 100 µM
GI50 (COLO 205 colon): < 0.01 µM
TGI (COLO 205 colon): < 0.0194 µM
GI50 (NCI/ADR-RES ovarian): < 0.0445 µM
TGI (NCI/ADR-RES ovarian): 2.68 µM
GI50 (U251 CNS): < 0.01 µM
TGI (U251 CNS): 20.5 µM
GI50 (MALME-3M melanoma): < 0.01 µM
TGI (MALME-3M melanoma): 14.1 µM

CC(=O)OCC(OC(C)=O)C1C[C@H]2O[C@@H]3[C@H](C[C@H]2O1)O[C@@]1(C[C@@H]3C)C[C@H](C)[C@@H]2O[C@]3(C[C@@H]2O1)C[C@H]1O[C@H]2[C@H](C)[C@H]4OC(=O)CC5CC[C@H]6OC7[C@H]8O[C@]9(CC[C@H]%10CC(O)(CO)[C@H](CC[C@H]%11C[C@@H](C)C(O)(CO)C(C[C@@H]4O[C@H]2C[C@H]1O3)O%11)O%10)CC8O[C@@H]7[C@@H](O9)[C@H]6O5 (some centres not stated)
TGI (HCT-116 colon): > 0.452 µM
TGI (M14 melanoma): > 1 µM
TGI (OVCAR-3 ovarian): > 1 µM
TGI (SK-MEL-2 melanoma): > 1 µM
TGI (MDA-MB-231 breast): > 1 µM
TGI (SR leukemia): > 1 µM
TGI (OVCAR-4 ovarian): > 1 µM
TGI (HS 578T breast): 0.00517 µM
TGI (UACC-62 melanoma): > 1 µM
TGI (MDA-MB-435): 0.0139 µM
TGI (SK-MEL-5 melanoma): > 1 µM
TGI (IGROV1 ovarian): > 1 µM
TGI (NCI-H460 lung): > 1 µM
TGI (A549 NSCLC): > 1 µM
TGI (K-562 leukemia): > 1 µM
TGI (EKVX NSCLC): > 1 µM
TGI (BT-549 breast): 0.00923 µM
TGI (HOP-92 NSCLC): > 1 µM
TGI (SN12C renal): > 1 µM
TGI (MOLT-4 leukemia): > 1 µM
TGI (DU-145 prostate): 0.0688 µM
TGI (ACHN renal): > 1 µM
TGI (CCRF-CEM leukemia): > 1 µM
TGI (LOX IMVI melanoma): > 0.414 µM
TGI (UACC-257 melanoma): > 1 µM
TGI (SF-295 CNS): > 0.301 µM
TGI (SK-OV-3 ovarian): > 1 µM
TGI (NCI-H522 lung): 0.00451 µM
TGI (A498 renal): > 1 µM
TGI (SW-620 colon): > 1 µM
TGI (MCF7 breast): > 1 µM
TGI (UO-31 renal): > 1 µM
TGI (SNB-75 CNS): > 1 µM
TGI (CAKI-1 renal): > 1 µM
TGI (SK-MEL-28 melanoma): > 1 µM
TGI (PC-3 prostate): > 1 µM
TGI (SNB-19 CNS): > 1 µM
TGI (OVCAR-5 ovarian): > 1 µM
TGI (SF-268 CNS): > 1 µM
TGI (786-0 renal): > 1 µM
TGI (TK-10 renal): > 1 µM
TGI (NCI-H226 lung): 0.142 µM
TGI (KM12 colon): > 0.333 µM
TGI (HOP-62 NSCLC): > 1 µM
TGI (OVCAR-8 ovarian): > 0.271 µM
TGI (COLO 205 colon): 0.0696 µM
TGI (NCI/ADR-RES ovarian): > 0.205 µM
TGI (U251 CNS): > 1 µM
TGI (MALME-3M melanoma): > 1 µM
